“And” between values parts separate entries of the source, which are not always exact repeats. Identical values can stand only once.
Tests used:
[1] = target: T1, DAT (Rattus norvegicus, UniProt P23977); assay: In vitro preincubation of striatal synaptosomes with MDMA: [3H]DA uptake and WIN35428 binding; format: biochemical; details: 30 min, 37° C.
T1 construct: from tissue; host or cells: striatum of male Sprague-Dawley rats (synaptosomes, P2)
Method: (§1) Uptake of [^3H]DA was determined in striatal synaptosomes prepared according to the method described by Kokoshka et al. (1998). Briefly, fresh striatal tissue was homogenized in cold 0.32 M sucrose and centrifuged (800×g for 12 min; 4° C.). The supernatant (S1) was then centrifuged (22,000×g for 15 min; 4° C.), and the resulting pellet (P2) was resuspended in ice-cold modified Kreb's buffer (in mM: 126 NaCl, 4.8 KCl, 1.3 CaCl2, 16 sodium phosphate, 1.4 MgSO4, 11 dextrose, 1-ascorbic acid, pH 7.4). Assays were conducted in Kreb's buffer. Each assay tube contained synaptosomal tissue (i.e., resuspended P2 obtained from 1.5 mg of original wet weight striatal tissue) and 1 μM pargyline. Nonspecific values were determined in the presence of 100 μM cocaine. After preincubation of assay tubes for 10 min at 37° C., assays were initiated by the addition of [^3H]DA (0.5 nM final concentration). Samples were incubated at 37° C. for 3 min. Samples were then filtered through Whatman GF/B filters (Brandel, Gaithersburg, Md.) soaked previously in 0.05% polyethylenimine. Filters were washed rapidly 3 times with 3 ml of ice-cold 0.32 M sucrose using a Brandel filtering manifold. […] Remaining resuspended P2 samples were assayed for protein concentrations according to the method of Lowry et al. (1951). In MDMA preincubation experiments, samples were preincubated with 10 μM MDMA for 30 min at 37° C. After 30 min, resuspended P2 fractions were “washed” by centrifugation (22,000×g for 15 min; 4° C.). The resulting pellet (P3) was then resuspeded in ice-cold Kreb's buffer, and once again centrifuged (22,000×g for 15 min; 4° C.) to obtain a P4 pellet that was subsequently resuspended and assayed. [^3H]WIN35428 binding (0.5 nM final concentration) was conducted in phosphate-buffered 0.32 M sucrose, pH 7.4, with synaptosomes obtained from 2 mg (original wet weight) of striatal tissue per reaction tube, and samples were incubated on ice for 2 hr. Samples were then filtered through Whatman GF/B filters (Brandel, Gaithersburg, Md.) soaked previously in 0.05% polyethylenimine. Filters were washed rapidly 3 times with 3 ml of ice-cold 0.32 M sucrose using a Brandel filtering manifold. […] Remaining resuspended P2 samples were assayed for protein concentrations according to the method of Lowry et al. (1951).

[2] = target: VMAT-2 (Mus musculus, UniProt Q8BRU6); assay: Vesicular [3H]dopamine uptake in striatal vesicles prepared from treated mice; format: in vivo; details: MDMA 4 x 10 mg/kg s.c.
Method: (A. E. Fleckenstein, et al., J. Pharmacol Exp Ther. (1997) 282:834-838). Briefly, fresh tissue was homogenized in ice-cold 0.32 M sucrose. The homogenate was centrifuged (800×g for 12 min; 4° C.), and the supernatant (S1) was carefully removed and centrifuged (22,000×g for 15 min; 4° C.) to obtain the synaptosomal-containing pellet (P2). The resulting P2 were resuspended and homogenized in ice-cold distilled deionized water. Osmolarity was restore by addition 25 mM HEPES and 100 mM potassium tartrate (final concentration; pH 7.5 at 4° C. respectively). […] The resultant S3 removed and MgSO4 added (final concentration of [1 mM] pH 7.5 at 4° C.) and centrifuged at 100,000×g for 45 min. The final P4 were resuspended at 50 mg/ml (original tissue wet weight).

[3] = target: T2, VMAT-2 (Rattus norvegicus, UniProt Q01827); assay: [3H]DHTBZ binding in purified striatal vesicles prepared from treated rats; details: rats, MDMA 4 x 10 mg/kg s.c., both 1 and 24 h after treatment
Method: Synaptic vesicles were obtained from synaptosomes prepared from rat striatum as described above. Synaptosomes were resuspended and homogenized in cold distilled deionized water. Osmolarity was restored by addition of HEPES and potassium tartrate 245 and 100 mM (final concentrations; pH 7.5), respectively. Samples were centrifuged for 20 min at 20,000×g (4° C.) to remove lysed synaptosomal membranes. MgSO4 (1 mM, final concentration) was added to the supernatant, which was then centrifuged for 45 min at 100,000×g (4° C.). The resulting vesicular pellet was resuspended in wash buffer at a concentration of 50 mg/ml (original tissue weight). […] Binding of [^3H]DHTBZ was performed as described by Teng et al. (1998). Briefly, 200 μl of the synaptic vesicle preparation (˜6 μg of protein) was incubated in wash buffer in the presence of [^3H]DHTBZ (2 nM final concentration) for 10 min at 25° C. The reaction was terminated by addition of 1 ml of cold wash buffer and rapid filtration through Whatman GF/F filters soaked in 0.5% polyethylenimine. Filters were washed three times with ice-cold wash buffer. Nonspecific binding was determined by coincubation with 20 μM tetrabenazine. All protein concentrations were determined by a BioRad protein assay (Bio-Rad, Richmond, Calif.).
Binding of [^3H]DHTBZ was performed as described by Teng et al. (1998). Briefly, 200 μl (˜6 μg protein) of the synaptic vesicle preparation was incubated in wash buffer in the presence of [^3H]DHTBZ (2 nM final concentration except in kinetic analyses wherein 0.25-500 nM DHTBZ was employed) for 10 m in at 25° C. The reaction was terminated by addition of 1 ml cold wash buffer and rapid filtration through Whatman GF/F filters soaked in 0.5% polyethylenimine. Filters were washed three times with ice-cold wash buffer. Radioactivity trapped in filters was counted using a liquid scintillation counter. Nonspecific binding was determined by coincubation with 20 μM TBZ. All protein concentrations were determined by a Bio-Rad protein assay (Bio-Rad Inc.).
Binding of[^3H]DHTBZ was performed as described by Teng et al. (1998). Briefly, 200 μl (˜5 μg protein) of the synaptic vesicle preparation was incubated in wash buffer in the presence of [^3H]DHTBZ (2 nM final concentration except in kinetic analyses wherein 0.25-500 nM DHTBZ was employed) for 10 m in at 25° C. The reaction was terminated by addition of 1 ml cold wash buffer and rapid filtration through Whatman GF/F filters soaked in 0.5% polyethylenimine. Filters were washed three times with ice-cold wash buffer. Radioactivity trapped in filters was counted using a liquid scintillation counter. Nonspecific binding was determined by coincubation with 20 μM TBZ. All protein concentrations were determined by a Bio-Rad protein assay (Bio-Rad Inc.).

[4] = target: T3, plasmalemmal DA transporter (DAT) (Rattus norvegicus, UniProt P23977); assay: Plasmalemmal [3H]DA uptake in striatal synaptosomes prepared from treated rats; format: in vivo; details: MDMA 4 x 10 mg/kg s.c.
T3 construct: from tissue; host or cells: striatum of male Sprague-Dawley rats (synaptosomes, P2)
Method: Uptake of [^3H]DA was determined in striatal synaptosomes prepared according to the method described by Kokoshka et al. (1998). Briefly, fresh striatal tissue was homogenized in cold 0.32 M sucrose and centrifuged (800×g for 12 min; 4° C.). The supernatant (S1) was then centrifuged (22,000×g for 15 min; 4° C.), and the resulting pellet (P2) was resuspended in ice-cold modified Kreb's buffer (in mM: 126 NaCl, 4.8 KCl, 1.3 CaCl2, 16 sodium phosphate, 1.4 MgSO4, 11 dextrose, 1-ascorbic acid, pH 7.4). Assays were conducted in Kreb's buffer. Each assay tube contained synaptosomal tissue (i.e., resuspended P2 obtained from 1.5 mg of original wet weight striatal tissue) and 1 μM pargyline. Nonspecific values were determined in the presence of 100 μM cocaine. After preincubation of assay tubes for 10 min at 37° C., assays were initiated by the addition of [^3H]DA (0.5 nM final concentration). Samples were incubated at 37° C. for 3 min. Samples were then filtered through Whatman GF/B filters (Brandel, Gaithersburg, Md.) soaked previously in 0.05% polyethylenimine. Filters were washed rapidly 3 times with 3 ml of ice-cold 0.32 M sucrose using a Brandel filtering manifold. […] Remaining resuspended P2 samples were assayed for protein concentrations according to the method of Lowry et al. (1951). In MDMA preincubation experiments, samples were preincubated with 10 μM MDMA for 30 min at 37° C. After 30 min, resuspended P2 fractions were “washed” by centrifugation (22,000×g for 15 min; 4° C.). The resulting pellet (P3) was then resuspeded in ice-cold Kreb's buffer, and once again centrifuged (22,000×g for 15 min; 4° C.) to obtain a P4 pellet that was subsequently resuspended and assayed. [^3H]WIN35428 binding (0.5 nM final concentration) was conducted in phosphate-buffered 0.32 M sucrose, pH 7.4, with synaptosomes obtained from 2 mg (original wet weight) of striatal tissue per reaction tube, and samples were incubated on ice for 2 hr. Samples were then filtered through Whatman GF/B filters (Brandel, Gaithersburg, Md.) soaked previously in 0.05% polyethylenimine. […]

[5] = target: T2, VMAT-2; format: in vivo; design: purified striatal vesicles prepared from treated rats; from tissue; host or cells: striatum of male Sprague-Dawley rats (synaptic vesicles; P2, P3, S3 fractions); details: rats, MDMA 4 x 10 mg/kg s.c.
Method: Osmolarity was restored by addition of N-(2-hydroxyethyl)-piperazine-N′-2-ethanesulfonic acid (HEPES) and potassium tartrate 25 mM and 100 mM (final concentrations; pH 7.5 at 4° C.), respectively.

[6] = target: T3, plasmalemmal DA transporter (DAT); details: MDMA-treated rats, multiple high-dose, Metzger et al., 1998, cited from earlier work
[7] = target: T1, DAT; assay: [3H]WIN35428 binding in striatal synaptosomes prepared from treated rats; format: in vivo; details: MDMA 4 x 10 mg/kg s.c.
Method: as §1

T3 sequence (P23977 whole entry): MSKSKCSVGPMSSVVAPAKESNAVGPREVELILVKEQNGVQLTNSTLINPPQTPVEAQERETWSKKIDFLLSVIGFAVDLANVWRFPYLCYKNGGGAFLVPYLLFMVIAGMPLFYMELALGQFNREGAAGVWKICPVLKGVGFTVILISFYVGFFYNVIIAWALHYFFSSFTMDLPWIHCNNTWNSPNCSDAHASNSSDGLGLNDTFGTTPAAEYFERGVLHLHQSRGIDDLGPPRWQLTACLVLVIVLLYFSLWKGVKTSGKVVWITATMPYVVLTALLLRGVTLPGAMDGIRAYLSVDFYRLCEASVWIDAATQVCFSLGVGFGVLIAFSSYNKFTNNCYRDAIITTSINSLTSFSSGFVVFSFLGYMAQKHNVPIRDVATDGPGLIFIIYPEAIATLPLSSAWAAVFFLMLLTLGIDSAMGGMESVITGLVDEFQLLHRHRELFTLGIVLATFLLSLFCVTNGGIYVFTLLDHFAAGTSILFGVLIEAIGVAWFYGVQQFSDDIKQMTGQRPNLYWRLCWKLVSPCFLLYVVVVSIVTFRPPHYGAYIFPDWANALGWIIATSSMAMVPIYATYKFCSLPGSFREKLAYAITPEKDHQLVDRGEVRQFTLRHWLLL
T1 sequence (P23977 whole entry): as above
T2 sequence (Q01827 whole entry): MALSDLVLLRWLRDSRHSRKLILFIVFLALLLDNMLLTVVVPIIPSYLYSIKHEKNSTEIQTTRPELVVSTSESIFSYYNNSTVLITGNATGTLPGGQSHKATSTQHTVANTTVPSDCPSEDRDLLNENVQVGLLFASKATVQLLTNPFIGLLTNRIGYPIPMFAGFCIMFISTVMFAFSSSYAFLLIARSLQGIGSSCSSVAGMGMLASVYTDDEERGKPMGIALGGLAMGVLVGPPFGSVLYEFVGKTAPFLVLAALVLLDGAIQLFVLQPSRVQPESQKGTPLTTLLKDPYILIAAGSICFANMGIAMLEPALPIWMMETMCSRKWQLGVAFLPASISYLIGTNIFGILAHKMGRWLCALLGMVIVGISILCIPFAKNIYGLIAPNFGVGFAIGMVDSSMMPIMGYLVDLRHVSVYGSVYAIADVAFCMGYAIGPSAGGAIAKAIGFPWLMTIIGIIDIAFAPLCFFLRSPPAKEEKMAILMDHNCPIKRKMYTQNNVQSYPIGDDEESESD
Chain of VMAT-2 (Mus musculus, UniProt Q8BRU6) (Q8BRU6 whole entry): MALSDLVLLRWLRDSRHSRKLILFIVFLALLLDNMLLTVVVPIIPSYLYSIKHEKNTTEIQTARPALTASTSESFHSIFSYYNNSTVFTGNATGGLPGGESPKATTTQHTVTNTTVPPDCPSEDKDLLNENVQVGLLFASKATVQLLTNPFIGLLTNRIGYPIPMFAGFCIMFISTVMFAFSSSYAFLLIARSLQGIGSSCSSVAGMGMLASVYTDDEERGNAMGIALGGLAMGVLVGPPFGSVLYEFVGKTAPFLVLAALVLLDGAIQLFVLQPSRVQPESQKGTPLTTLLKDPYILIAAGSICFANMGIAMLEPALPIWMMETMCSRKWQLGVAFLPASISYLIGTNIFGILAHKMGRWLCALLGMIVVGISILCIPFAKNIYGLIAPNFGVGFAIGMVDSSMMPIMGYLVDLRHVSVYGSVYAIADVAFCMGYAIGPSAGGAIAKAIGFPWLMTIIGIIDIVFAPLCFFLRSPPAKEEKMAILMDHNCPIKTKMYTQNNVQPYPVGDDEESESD

CNC(C)Cc1ccc2c(c1)OCO2 (stereo not drawn) [MDMA, methylenedioxymethamphetamine]
WIN35428 binding after incubation of synaptosomes with MDMA ([1]; MDMA 10 μM): no effect | decrease in DA uptake in vitro ([1]; striatal synaptosomes incubated with MDMA 10 μM): 35-55% | vesicular dopamine uptake after multiple MDMA administrations ([2]; 1 h): rapidly decreased | decrease in vesicular dopamine uptake 24 h later ([2]; 24 h): largely reversed | binding of the VMAT-2 ligand [3H]DHTBZ [3]: reduced | magnitude of the decrease in plasmalemmal DA uptake ([4]; 2-h intervals, 1 h): 35-55% | deficit in plasmalemmal DA uptake 24 h after drug treatment ([4]; 24 h): reversed | deficit in vesicular DA uptake ([5]; 1 h): 25-30% | vesicular DA uptake 1 h after multiple MDMA administrations ([5]; 1 h): rapidly decreased | deficit in vesicular DA uptake 24 h after drug treatment ([5]; 24 h): partially recovered | Vmax of plasmalemmal DA uptake [6]: 1410 fmol/μg/5 min | Km ([6]; read-out: transporter Km of plasmalemmal DA uptake): 98.9 nM | WIN35428 binding in the body temperature experiment ([7]; 6 or 24° C. ambient, 1 h (data not shown)): not affected | decrease in WIN35428 binding ([7]; 1 h after treatment): 10% and 18% | deficit in WIN35428 binding 24 h after drug treatment ([7]; 24 h): persisted

— US20060241082A1, “Modulating vesicular monoamine transporter trafficking and function: a novel approach for the treatment of parkinson's disease” (priority 2002, published 2006)
